Patent publication US12421253B2 (Mirati Therapeutics, Inc., priority 2020, dated 2025)

Key:
[1] = target: T1, KRas^G12D (Homo sapiens, UniProt P01116, G12D); test: KRas binding assay (TR-FRET displacement of Cy5 labelled tracer)
T1 construct: […]; biotin (biotinylated); purchased Accelegan Inc

[2] = target: T2, KRas^G12R (Homo sapiens, UniProt P01116, G12R); test: as above
T2 construct: […]; biotin (biotinylated); purchased Accelegan Inc

[3] = target: T3, KRas^G12V (Homo sapiens, UniProt P01116, G12V); test: as above
T3 construct: […]; biotin (biotinylated); purchased Accelegan Inc
T3 sequence (P01116 1-169 isoform P01116-2 G12V): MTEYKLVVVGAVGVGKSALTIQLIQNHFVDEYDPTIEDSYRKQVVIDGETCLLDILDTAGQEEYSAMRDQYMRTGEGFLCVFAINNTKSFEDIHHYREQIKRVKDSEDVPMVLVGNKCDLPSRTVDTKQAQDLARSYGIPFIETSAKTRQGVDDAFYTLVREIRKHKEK

[4] = tested on: PSN-1 (G12R) cells, phospho-ERK; test: Inhibition of KRas-mediated phosphorylation of ERK (phospho-ERK/GAPDH antibody detection, LI-COR); type: cell-based; settings: Homo sapiens, PSN1, 3 hours
Procedure, shortened: (§1)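 Cells seeded 20,000/well, attached 12-14 h, then compound (0.5% DMSO) for 3 h. Formaldehyde-fixed, methanol-permeabilized cells stained for phospho-ERK (Thr202/Tyr204) and GAPDH; infrared imaging. Ratio expressed as % of DMSO control; IC50 from 4-parameter fit.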

[5] = tested on: HCT116 (G13D) cells, phospho-ERK; test: as above; type: cell-based; settings: Homo sapiens, HCT-116, 3 hours
Procedure, shortened: as §1

[6] = tested on: NCI-H727 (G12V) cells, phospho-ERK; test: as above; type: cell-based; settings: Homo sapiens, 3 hours
Procedure, shortened: as §1

[7] = tested on: A549 (G12S) cells, phospho-ERK; test: as above; type: cell-based; settings: Homo sapiens, 3 hours
Procedure, shortened: as §1

[8] = tested on: NCI-H358 (G12C) cells, phospho-ERK; test: as above; type: cell-based; settings: Homo sapiens, 3 hours
Procedure, shortened: as §1

[9] = tested on: MKN1 cells, pERK; test: Inhibition of KRas phosphorylation of ERK (Cisbio HTRF Advanced pERK assay); type: cell-based; settings: Homo sapiens, MKN-1, 3 h, read-out: Inhibition (HTRF IC50 nM) of KRas-mediated Phosphorylation of ERK, MKN1
Procedure, shortened: (§2)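 pERK measured by HTRF in lysates from cells treated 3 h with compound, 10 uM top, 3-fold steps, 10 doses, 0.8% DMSO final. Cells (6,000/well, RPMI 10% FBS) had been plated overnight at 37 °C; 0.2 uM trametinib defined minimum signal; antibody detection 2 h at room temperature.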

[10] = tested on: A549 cells, pERK; test: as above; type: cell-based; settings: Homo sapiens, 3 hrs, read-out: Inhibition (HTRF IC50 nM) of KRas-mediated Phosphorylation of ERK, A549
Procedure, shortened: as §2

[11] = tested on: H460 cells, pERK; test: as above; type: cell-based; settings: Homo sapiens, NCI-H460, 3 hrs, read-out: Inhibition (HTRF IC50 nM) of KRas-mediated Phosphorylation of ERK, H460
Procedure, shortened: as §2

[12] = tested on: ASPC1 cells, pERK; test: as above; type: cell-based; settings: Homo sapiens, ASPC1, 3 h, AsPC-1 cells, read-out: Inhibition (HTRF IC50 nM) of KRas-mediated Phosphorylation of ERK, AsPC-1
Procedure, shortened: as §2

[13] = tested on: H727 cells, pERK; test: as above; type: cell-based; settings: Homo sapiens, NCI-H727, 3 h, read-out: Inhibition (HTRF IC50 nM) of KRas-mediated Phosphorylation of ERK, H727
Procedure, shortened: as §2

[14] = tested on: HCT116 cells, pERK; test: as above; type: cell-based; settings: Homo sapiens, HCT-116, 3 hrs, read-out: Inhibition (HTRF IC50 nM) of KRas-mediated Phosphorylation of ERK, HCT116
Procedure, shortened: as §2

[15] = tested on: H358 cells, pERK; test: as above; type: cell-based; settings: Homo sapiens, NCI-H358, 3 hrs, read-out: Inhibition (HTRF IC50 nM) of KRas-mediated Phosphorylation of ERK, H358
Procedure, shortened: as §2

[16] = tested on: PSN1 cells, pERK; test: as above; type: cell-based; settings: Homo sapiens, PSN1, 3 h, read-out: Inhibition (HTRF IC50 nM) of KRas-mediated Phosphorylation of ERK, PSN1
Procedure, shortened: as §2

[17] = tested on: NCI-H460 (Q61H) cells, phospho-ERK; test: Inhibition of KRas-mediated phosphorylation of ERK (phospho-ERK/GAPDH antibody detection, LI-COR); type: cell-based; settings: Homo sapiens, 3 hours
Procedure, shortened: as §1

[18] = tested on: AsPC-1 (G12D) cells, phospho-ERK; test: as above; type: cell-based; settings: Homo sapiens, ASPC1, 3 hours
Procedure, shortened: as §1

T2 sequence (P01116 1-169 isoform P01116-2 G12R): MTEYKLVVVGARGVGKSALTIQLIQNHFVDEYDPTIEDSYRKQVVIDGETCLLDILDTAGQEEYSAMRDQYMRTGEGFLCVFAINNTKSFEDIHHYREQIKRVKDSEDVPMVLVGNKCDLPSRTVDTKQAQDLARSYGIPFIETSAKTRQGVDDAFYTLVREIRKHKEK
T1 sequence (P01116 1-169 isoform P01116-2 G12D): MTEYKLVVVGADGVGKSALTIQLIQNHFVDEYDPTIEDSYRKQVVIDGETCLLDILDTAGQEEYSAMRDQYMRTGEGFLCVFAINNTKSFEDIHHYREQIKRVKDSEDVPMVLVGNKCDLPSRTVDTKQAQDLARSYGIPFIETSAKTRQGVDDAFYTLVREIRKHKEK

| IC50 [1] [nM] | IC50 [2] [nM] | IC50 [3] [nM] | IC50 [9] [nM] | IC50 [10] [nM] | IC50 [11] [nM] | IC50 [12] [nM] | IC50 [13] [nM] | IC50 [14] [nM] | IC50 [15] [nM] | IC50 [16] [nM] | Compound | IC50 [4] [nM] | IC50 [5] [nM] | IC50 [6] [nM] | IC50 [7] [nM] | IC50 [8] [nM] | IC50 [17] [nM] | IC50 [18] [nM] |
| --- | --- | --- | --- | --- | --- | --- | --- | --- | --- | --- | --- | --- | --- | --- | --- | --- | --- | --- |
| ≤ 2 | ≤ 2 | ≤ 2 | 85 | 294 | 845 | 46 | 86 | 1340 | 61 | 6070 | CN(C)C(=O)c1cc2n(n1)CCCN(c1nc(OC[C@@]34CCCN3C[C@H](F)C4)nc3c1CCN(c1cc(O)cc4ccc(F)c(Br)c14)C3)C2 [Example 218, 5-(7-(8-bromo-7-fluoro-3-hydroxynaphthalen-1-yl)-2-(((2R,7aS)-2-fluorohexahydro-1H-pyrrolizin-7a-yl)methoxy)-5,6,7,8-tetrahydropyrido[3,4-d]pyrimidin-4-yl)-N,N-dimethyl-5,6,7,8-tetrahydro-4H-pyrazolo[1,5-a][1,4]diazepine-2-carboxamide] | – | – | – | – | – | – | – |
| ≤ 2 | ≤ 2 | ≤ 2 | 58 | 326 | 750 | 53 | 85 | 1120 | 50 | 7860 | CCc1c(F)ccc2cc(O)cc(N3CCc4c(nc(OCC56CCCN5CCC6)nc4N4CCCn5nc(C(=O)N(C)C)cc5C4)C3)c12 [Example 175, 5-[7-(8-ethyl-7-fluoro-3-hydroxy-1-naphthyl)-2-(1,2,3,5,6,7-hexahydropyrrolizin-8-ylmethoxy)-6,8-dihydro-5H-pyrido[3,4-d]pyrimidin-4-yl]-N,N-dimethyl-4,6,7,8-tetrahydropyrazolo[1,5-a][1,4]diazepine-2-carboxamide] | – | – | – | – | – | – | – |
| ≤ 2 | ≤ 2 | ≤ 2 | 27 | 142 | 578 | 62 | 264 | 832 | 77 | 9110 | CCc1c(F)ccc2cc(O)cc(N3CCc4c(nc(OCC5(CN(C)C)CC5)nc4N4C[C@@H]5C(=O)NC(=O)[C@@H]5C4)C3)c12 [Example 200, (3aS,6aR)-5-[2-[[1-[(dimethylamino)methyl]cyclopropyl]methoxy]-7-(8-ethyl-7-fluoro-3-hydroxy-1-naphthyl)-6,8-dihydro-5H-pyrido[3,4-d]pyrimidin-4-yl]-3a,4,6,6a-tetrahydropyrrolo[3,4-c]pyrrole-1,3-dione] | – | – | – | – | – | – | – |
| ≤ 2 | ≤ 2 | ≤ 2 | 5 | 2 | 2 | 6 | 11 | 5 | 1 | 18 | CCc1c(F)ccc2cc(O)cc(N3CCc4c(nc(OC[C@@]56CCCN5C[C@H](F)C6)nc4N4CCC[C@]5(C4)NC(=O)NC5=O)C3)c12 [Example 196, (R)-7-(7-(8-ethyl-7-fluoro-3-hydroxynaphthalen-1-yl)-2-(((2R,7aS)-2-fluorohexahydro-1H-pyrrolizin-7a-yl)methoxy)-5,6,7,8-tetrahydropyrido[3,4-d]pyrimidin-4-yl)-1,3,7-triazaspiro[4.5]decane-2,4-dione] | – | – | – | – | – | – | – |
| ≤ 2 | ≤ 2 | ≤ 2 | 7 | 32 | 59 | 10 | 59 | 126 | 8 | 148 | O=S1(=O)NCC2(CCCN(c3nc(OC[C@@]45CCCN4C[C@H](F)C5)nc4c3CCN(c3cc(O)cc5ccc(F)c(Cl)c35)C4)C2)N1 (stereo partly drawn) [Example 72, 7-(7-(8-chloro-7-fluoro-3-hydroxynaphthalen-1-yl)-2-(((2R,7aS)-2-fluorohexahydro-1H-pyrrolizin-7a-yl)methoxy)-5,6,7,8-tetrahydropyrido[3,4-d]pyrimidin-4-yl)-2-thia-1,3,7-triazaspiro[4.5]decane 2,2-dioxide] | – | – | – | – | – | – | – |
| ≤ 2 | 4 | ≤ 2 | 49 | 14 | 26 | 49 | 176 | 49 | 12 | 80.5 | CCc1c(F)ccc2cc(O)cc(N3CCc4c(nc(OCC5(CN(C)C)CC5)nc4N4CCCC5(C4)NC(=O)NC5=O)C3)c12 (centres unmarked) [Example 201, 7-(2-((1-((dimethylamino)methyl)cyclopropyl)methoxy)-7-(8-ethyl-7-fluoro-3-hydroxynaphthalen-1-yl)-5,6,7,8-tetrahydropyrido[3,4-d]pyrimidin-4-yl)-1,3,7-triazaspiro[4.5]decane-2,4-dione] | – | – | – | – | – | – | – |

| Compound | IC50 [1] [nM] | IC50 [2] [nM] | IC50 [3] [nM] | IC50 [9] [nM] | IC50 [10] [nM] | IC50 [11] [nM] | IC50 [12] [nM] | IC50 [13] [nM] | IC50 [14] [nM] | IC50 [15] [nM] | IC50 [16] [nM] | IC50 [4] [nM] | IC50 [5] [nM] | IC50 [6] [nM] | IC50 [7] [nM] | IC50 [8] [nM] | IC50 [17] [nM] | IC50 [18] [nM] |
| --- | --- | --- | --- | --- | --- | --- | --- | --- | --- | --- | --- | --- | --- | --- | --- | --- | --- | --- |
| CCc1c(F)ccc2cc(O)cc(N3CCc4c(nc(OC[C@@]56CCCN5C[C@H](F)C6)nc4N4CCOCC(C)(O)C4)C3)c12 (stereo partly drawn) [Example 20, 4-(7-(8-ethyl-7-fluoro-3-hydroxynaphthalen-1-yl)-2-(((2R,7aS)-2-fluorohexahydro-1H-pyrrolizin-7a-yl)methoxy)-5,6,7,8-tetrahydropyrido[3,4-d]pyrimidin-4-yl)-6-methyl-1,4-oxazepan-6-ol] | ≤ 2 | 52 | ≤ 2 | – | – | – | – | – | – | – | – | > 10000 | 860 | 747 | 446 | 314 | – | – |
| CCc1c(F)ccc2cc(O)cc(N3CCc4c(nc(OC[C@@]56CCCN5C[C@H](F)C6)nc4NCc4cccnc4N)C3)c12 [Example 17, 4-(4-(((2-aminopyridin-3-yl)methyl)amino)-2-(((2R,7aS)-2-fluorohexahydro-1H-pyrrolizin-7a-yl)methoxy)-5,6-dihydropyrido[3,4-d]pyrimidin-7(8H)-yl)-5-ethyl-6-fluoronaphthalen-2-ol] | 26 | ≤ 2 | ≤ 2 | – | – | – | – | – | – | – | – | > 10000 | 10000 | 1130 | 189 | 232 | – | – |
| CCc1c(F)ccc2cc(O)cc(N3CCc4c(nc(OC[C@@]56CCCN5C[C@H](F)C6)nc4N4CCCC5(C4)NC(=O)NC5=O)C3)c12 (stereo partly drawn) [Example 59, 7-(7-(8-ethyl-7-fluoro-3-hydroxynaphthalen-1-yl)-2-(((2R,7aS)-2-fluorohexahydro-1H-pyrrolizin-7a-yl)methoxy)-5,6,7,8-tetrahydropyrido[3,4-d]pyrimidin-4-yl)-1,3,7-triazaspiro[4.5]decane-2,4-dione] | ≤ 2 | ≤ 2 | ≤ 2 | 5 | 3 | 9 | 8 | 40 | 16 | 4 | 25.3 | – | – | 181 | – | – | 17 | 44 |
| CCc1c(F)ccc2cc(O)cc(N3CCc4c(nc(OC[C@@]56CCCN5C[C@H](F)C6)nc4N4CCCn5nc(CO)cc5C4)C3)c12 [Example 34, 5-ethyl-6-fluoro-4-(2-(((2R,7aS)-2-fluorohexahydro-1H-pyrrolizin-7a-yl)methoxy)-4-(2-(hydroxymethyl)-7,8-dihydro-4H-pyrazolo[1,5-a][1,4]diazepin-5(6H)-yl)-5,6-dihydropyrido[3,4-d]pyrimidin-7(8H)-yl)naphthalen-2-ol] | ≤ 2 | ≤ 2 | ≤ 2 | 134 | 351 | 784 | 31 | 217 | 1270 | 38 | ≥ 10000 | – | – | 1040 | – | – | 774 | 258 |
